Reference: patent US20050197364A1, “Amide compounds as ion channel ligands and uses thereof” (priority 2003, published 2005)

Experiments:
VR1 receptor [1] = assay: High throughput calcium imaging assay (Fura2, Flex Station) of VR1 antagonists, pH 5.1 stimulus; assay type: cell-based; details: 1 uM compound; inhibition of calcium ion influx induced by capsaicin stimulation
VR1 receptor [2] = target: T1, VR1 receptor (Rattus norvegicus, UniProt O35433); assay: Whole-cell patch clamp electrophysiology, capsaicin induced current in DRG neurons; assay type: cell-based
T1 construct: Dorsal root ganglion (DRG) neurons were recovered from either neonatal or adult rats; endogenous in cells; host or cells: primary rat dorsal root ganglion neurons
T1 sequence (O35433 whole entry): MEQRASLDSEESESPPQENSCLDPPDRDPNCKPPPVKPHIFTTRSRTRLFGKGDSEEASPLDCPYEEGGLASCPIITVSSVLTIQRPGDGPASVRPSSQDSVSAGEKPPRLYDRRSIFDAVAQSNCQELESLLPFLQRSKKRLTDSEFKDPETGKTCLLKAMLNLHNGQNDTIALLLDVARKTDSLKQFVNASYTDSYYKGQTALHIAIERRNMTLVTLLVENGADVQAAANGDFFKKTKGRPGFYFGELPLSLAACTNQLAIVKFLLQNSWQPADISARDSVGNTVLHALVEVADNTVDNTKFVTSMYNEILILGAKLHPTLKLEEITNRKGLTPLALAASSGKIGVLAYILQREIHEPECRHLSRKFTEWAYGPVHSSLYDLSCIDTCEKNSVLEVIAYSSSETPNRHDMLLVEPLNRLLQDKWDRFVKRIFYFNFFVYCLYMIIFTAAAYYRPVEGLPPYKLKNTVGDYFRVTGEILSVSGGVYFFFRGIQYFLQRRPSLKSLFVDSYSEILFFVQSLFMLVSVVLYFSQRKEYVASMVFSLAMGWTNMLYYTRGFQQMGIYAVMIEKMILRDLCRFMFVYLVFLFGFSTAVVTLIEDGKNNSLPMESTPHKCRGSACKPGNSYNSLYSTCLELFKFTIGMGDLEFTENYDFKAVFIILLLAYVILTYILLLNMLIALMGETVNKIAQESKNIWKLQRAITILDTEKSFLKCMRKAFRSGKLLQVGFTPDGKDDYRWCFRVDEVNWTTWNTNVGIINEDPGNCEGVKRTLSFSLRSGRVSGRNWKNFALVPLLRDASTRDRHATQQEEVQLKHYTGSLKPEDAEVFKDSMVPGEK
Experimental: Dorsal root ganglion (DRG) neurons were recovered from either neonatal or adult rats and plated onto poly-D-lysine coated glass coverslips. The plated neurons were transferred into a chamber to allow drug solutions to be added to the cells using a computer-controlled solenoid-valve based perfusion system. The cells were imaged using standard DIC optics. Cells were patched using finely-pulled glass electrodes. Voltage-clamp electrophysiology experiments were carried out using an Axon Instruments Multiclamp amplified controlled by pCLAMP8 software.
The cells were placed into a whole-cell voltage clamp and help at a voltage of −80 mV while monitoring the membrane current in gap-free recording mode. 500 nM capsaicin was added for 30 seconds as a control. Test compounds at various concentrations at ranging from (10-1000 nM) were added to the cells for 1 minute prior to a 30 second capsaicin application. Differences between control experiments and drug positive capsaicin experiments were used to determine the efficacy of each test compound. All compounds that inhibited capsaicin induced current greater than 50% were considered positives.

| dose response of inhibiting a capsaicin induced calcium ion influx (FIG. 4) (VR1 receptor [2]; 20 nM, 40 nM, 100 nM and 200 nM) | inhibition at 0.2 µM (VR1 receptor [2]; DRG neuron, 200 nM compound, treatment time 25 seconds, 500 nM capsaicin, rat DRG neurons, -80 mV) [%] | SMILES | % Inhibition @ 1 uM (VR1 receptor [1]) |
| --- | --- | --- | --- |
| increasing effectiveness | 100 | CC(C)(C)c1ccc(NC(=O)c2ccc(-c3ncccc3Cl)cc2)cc1 [Compound 24] | + + + + (compound exhibited 75% or greater inhibition of calcium ion influx induced by capsaicin stimulation) |
|  |  | O=C(Nc1ccc2ncccc2c1)c1ccc(-c2ncccc2Cl)cn1 [Compound 327] | + (“+” compound exhibited 0-25% inhibition of calcium ion influx induced by capsaicin stimulation.) |
|  |  | O=C(Nc1ccc(Cl)nc1)c1ccc(-c2ncccc2Cl)c(F)c1 [Compound 152] | + (compound exhibited 0-25% inhibition of calcium ion influx induced by capsaicin stimulation) |
|  |  | CCOC(=O)c1cccc(NC(=O)c2ccc(-c3ncccc3Cl)cc2)c1 [Compound 269] | + (“+” compound exhibited 0-25% inhibition of calcium ion influx induced by capsaicin stimulation.) |
|  |  | O=C(Nc1ccc2[nH]ccc2c1)c1ccc(-c2ncccc2Cl)cc1 [Compound 4] | + + + + (compound exhibited 75% or greater inhibition of calcium ion influx induced by capsaicin stimulation) |
|  |  | COc1cc(C(=O)Nc2cccc(OC(C)C)c2)ccc1-c1ncccc1Cl [Compound 253] | + (“+” compound exhibited 0-25% inhibition of calcium ion influx induced by capsaicin stimulation.) |
|  |  | CCCOc1ccc(NC(=O)c2ccc(-c3ncccc3Cl)cc2)cc1 [Compound 274] | + (“+” compound exhibited 0-25% inhibition of calcium ion influx induced by capsaicin stimulation.) |
|  |  | O=C(Nc1cccc(OC(F)(F)F)c1)c1ccc(-c2ncccc2Cl)c(F)c1 [Compound 176] | + (compound exhibited 0-25% inhibition of calcium ion influx induced by capsaicin stimulation) |
|  |  | COc1cc(C(=O)Nc2ccc3cn[nH]c3c2)ccc1-c1ncccc1Cl [Compound 247] | + + (“+ +” compound exhibited 25-50% inhibition of calcium ion influx induced by capsaicin stimulation.) |
|  |  | COc1cc(C(=O)Nc2cc(C)nc(C)n2)ccc1-c1ncccc1Cl [Compound 232] | + (“+” compound exhibited 0-25% inhibition of calcium ion influx induced by capsaicin stimulation.) |
|  |  | CCN(CC)c1ccc(NC(=O)c2ccc(-c3ncccc3Cl)cc2)cc1 [Compound 44] | + + + + (compound exhibited 75% or greater inhibition of calcium ion influx induced by capsaicin stimulation) |
|  |  | O=C(Nc1ccc(C2CCCCC2)cc1)c1ccc(-c2ncccc2Cl)cc1 [Compound 27] | + + + + (compound exhibited 75% or greater inhibition of calcium ion influx induced by capsaicin stimulation) |
|  |  | CC(C)Oc1cccc(NC(=O)c2ccc(-c3ncccc3Cl)cn2)c1 [Compound 345] | + (“+” compound exhibited 0-25% inhibition of calcium ion influx induced by capsaicin stimulation.) |
|  |  | O=C(Nc1cccc(Br)c1)c1ccc(-c2ncccc2Cl)cc1F [Compound 83] | + + + + (compound exhibited 75% or greater inhibition of calcium ion influx induced by capsaicin stimulation) |
|  |  | Cc1ccnc(NC(=O)c2ccc(-c3ncccc3Cl)cn2)c1 [Compound 318] | + (“+” compound exhibited 0-25% inhibition of calcium ion influx induced by capsaicin stimulation.) |
|  |  | Cc1ccnc(NC(=O)c2ccc(-c3ncccc3Cl)c(F)c2)c1 [Compound 145] | + + + + (compound exhibited 75% or greater inhibition of calcium ion influx induced by capsaicin stimulation) |
|  |  | O=C(Nc1ccccc1O)c1ccc(-c2ncccc2Cl)cc1F [Compound 67] | + (compound exhibited 0-25% inhibition of calcium ion influx induced by capsaicin stimulation) |
|  |  | COc1cc(C(=O)Nc2ccc(C(F)(F)F)cc2)ccc1-c1ncccc1Cl [Compound 213] | + + (“+ +” compound exhibited 25-50% inhibition of calcium ion influx induced by capsaicin stimulation.) |
|  |  | CCCCc1ccc(NC(=O)c2ccc(-c3ncccc3Cl)cc2)cc1 [Compound 26] | + + (compound exhibited 25-50% inhibition of calcium ion influx induced by capsaicin stimulation) |
|  |  | CC(C)Oc1cccc(NC(=O)c2ccc(-c3ncccc3Cl)c(F)c2)c1 [Compound 177] | + (compound exhibited 0-25% inhibition of calcium ion influx induced by capsaicin stimulation) |
|  |  | CCOc1ccc(NC(=O)c2ccc(-c3ncccc3Cl)c(OC)c2)cc1 [Compound 256] | + (“+” compound exhibited 0-25% inhibition of calcium ion influx induced by capsaicin stimulation.) |
|  |  | COc1cc(C(=O)Nc2ccccc2C#N)ccc1-c1ncccc1Cl [Compound 192] | + (compound exhibited 0-25% inhibition of calcium ion influx induced by capsaicin stimulation) |
|  |  | O=C(Nc1ncc(C(F)(F)F)cc1Cl)c1ccc(-c2ncccc2Cl)cc1F [Compound 98] | + (compound exhibited 0-25% inhibition of calcium ion influx induced by capsaicin stimulation) |
|  |  | COc1cccc(NC(=O)c2ccc(-c3ncccc3Cl)cc2)c1 [Compound 2] | + (compound exhibited 0-25% inhibition of calcium ion influx induced by capsaicin stimulation) |
|  |  | O=C(Nc1ccnc(Cl)c1)c1ccc(-c2ncccc2Cl)cc1 [Compound 33] | + + + + (compound exhibited 75% or greater inhibition of calcium ion influx induced by capsaicin stimulation) |
|  |  | CCOC(=O)c1ccc(NC(=O)c2ccc(-c3ncccc3Cl)cn2)cc1 [Compound 333] | + (“+” compound exhibited 0-25% inhibition of calcium ion influx induced by capsaicin stimulation.) |
|  |  | COc1cc(C(=O)Nc2ccc(Cl)c(C(=O)O)c2)ccc1-c1ncccc1Cl [Compound 242] | + + + + (“+ + + +” compound exhibited 75% or greater inhibition of calcium ion influx induced by capsaicin stimulation.) |
|  |  | CC(C)Oc1cccc(NC(=O)c2ccc(-c3ncccc3Cl)cc2)c1 [Compound 278] | + (“+” compound exhibited 0-25% inhibition of calcium ion influx induced by capsaicin stimulation.) |
|  |  | COc1ccc(NC(=O)c2ccc(-c3ncccc3Cl)cc2F)cc1Cl [Compound 79] | + + (compound exhibited 25-50% inhibition of calcium ion influx induced by capsaicin stimulation) |
|  |  | O=C(Nc1ccc2ncccc2c1)c1ccc(-c2ncccc2Cl)c(F)c1 [Compound 156] | + + + + (compound exhibited 75% or greater inhibition of calcium ion influx induced by capsaicin stimulation) |
